Experimental data taken from PubChem BioAssay (NCI).
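Method: 48-hour compound exposure of cells in 96-well plates, five concentrations, linear interpolation of endpoints. The concentration for full growth arrest is given as TGI.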

Assays:
Experiment in all cases: growth of human tumour cells (NCI), 48 h
MOLT-4 leukemia = system: MOLT-4 leukemia
KM12 colon = system: KM12 colon
NCI-H23 lung = system: NCI-H23 lung
SNB-78 CNS = system: SNB-78 CNS
M19-MEL melanoma = system: M19-MEL melanoma
SK-MEL-28 melanoma = system: SK-MEL-28 melanoma
DLD-1 colon = system: DLD-1 colon
DMS 114 small cell lung = system: DMS 114 small cell lung
HOP-18 NSCLC = system: HOP-18 NSCLC
NCI/ADR-RES ovarian = system: NCI/ADR-RES ovarian
T-47D breast = system: T-47D breast
BT-549 breast = system: BT-549 breast
MDA-N = system: MDA-N

| Compound | TGI (MOLT-4 leukemia) [µM] | TGI (KM12 colon) [µM] | TGI (NCI-H23 lung) [µM] | TGI (SNB-78 CNS) [µM] | TGI (M19-MEL melanoma) [µM] | TGI (SK-MEL-28 melanoma) [µM] | TGI (DLD-1 colon) [µM] | TGI (DMS 114 small cell lung) [µM] | TGI (HOP-18 NSCLC) [µM] | TGI (NCI/ADR-RES ovarian) [µM] | TGI (T-47D breast) [µM] | TGI (BT-549 breast) [µM] | TGI (MDA-N) [µM] |
| --- | --- | --- | --- | --- | --- | --- | --- | --- | --- | --- | --- | --- | --- |
| Cc1cc(NS(=O)(=O)c2ccc(NC(=O)c3cccc4c(Nc5ccc(S(N)(=O)=O)cc5)c5ccccc5nc34)cc2)no1 | > 100 | > 100 | > 100 | > 100 | > 100 | > 100 | > 100 | > 100 | – | – | – | – | – |
| O=NN(CCF)C(=O)NC1CCSCC1 | > 100 | > 100 | > 100 | > 100 | > 100 | > 100 | > 100 | > 100 | > 100 | > 100 | – | – | – |
| CCCCCCCCCCCC[N+](CCCCCCCCCCCC)=C1SCCS1 | 16.6 | – | 9.05 | 14.6 | 8.43 | 22.9 | 21.2 | 3.58 | 30 | – | – | – | – |
| CCOC(=O)c1c[nH]c2ccc3c(c2c1=O)S(=O)(=O)CC3 (tested in a mixture with another compound) | > 100 | > 100 | > 100 | > 100 | > 100 | > 100 | > 100 | > 100 | > 100 | > 100 | – | – | – |
| O=C1NC2CCCCCC2C12CCCCC2 (stereo not given) | > 100 | > 100 | > 100 | > 100 | > 100 | > 100 | > 100 | > 100 | – | – | – | – | – |
| CN1CCN(P2(=S)Oc3ccc4ccccc4c3-c3c(ccc4ccccc34)O2)CC1 | 46.2 | 51.1 | > 100 | > 100 | > 100 | > 100 | > 100 | > 100 | > 100 | > 71 | – | – | – |
| COC(=O)C(=O)Cc1nc2ccccc2o1 | > 100 | > 100 | > 100 | > 100 | > 100 | > 100 | > 100 | > 100 | – | – | – | – | – |
| O=[N+]([O-])c1ccc(C(O)(C#CCN2CCCC2)c2ccccc2)cc1 (stereo not given) | 64.4 | > 100 | > 100 | – | – | 34 | – | – | – | > 100 | 98.9 | > 100 | > 100 |
